# Patent US12552790B2, “Positive modulators of the muscarinic acetylcholine receptor M4” (Vanderbilt University, priority 2023, dated 2026)
# How the values were obtained:
# Assay type in all cases: in vitro ADME
# [1] = Human fraction unbound in plasma; details: read-out: Human Fu (plasma)
# Text: (§1) Compounds may be tested in in vitro assays to investigate both metabolism and pharmacokinetics. These assays may be performed according to known methods as generally described in the following references: Conde-Ceide et al. ACS Med. Chem. Lett. 2015, 6, 716-720; Morris et al. J. Med. Chem. 2014, 57, 10192-10197; and Bubser et al. ACS Chem. Neurosci. 2014, 5, 920-942.
# [2] = Rat fraction unbound in brain; details: read-out: Rat Fu (brain)
# Text: as §1
# Rat intrinsic clearance = assay: Rat intrinsic clearance
# Text: as §1
smiles,measurement,setting,value
"[2H]C1([2H])Oc2ccc(OC3CCN(c4nc5c(cc4C)C(=O)NC5)CC3)cc2OC1([2H])[2H] [Compound 3, 2-(4-((2,3-dihydrobenzo[b][1,4]dioxin-6-yl-2,2,3,3-d4)oxy)piperidin-1-yl)-3-methyl-6,7-dihydro-5H-pyrrolo[3,4-b]pyridin-5-one]",fraction unbound,[1],0.022
same,fraction unbound,[2],0.015
same,CLint scaled,Rat intrinsic clearance,90 mL/min/kg
